Tests used:
Type in all cases: functional
Details in all cases: read-out: DIZ
Staphylococcus aureus [1] = assay: Antibacterial activity against Staphylococcus aureus at 100 ug/ml after 24 hr by disk diffusion method
Staphylococcus aureus [2] = assay: Antibacterial activity against Staphylococcus aureus at 50 ug/ml after 24 hr by disk diffusion method
Bacillus subtilis [3] = assay: Antibacterial activity against Bacillus subtilis at 200 ug/ml after 24 hr by disk diffusion method
Bacillus subtilis [4] = assay: Antibacterial activity against Bacillus subtilis at 50 ug/ml after 24 hr by disk diffusion method
Pseudomonas aeruginosa [5] = assay: Antibacterial activity against Pseudomonas aeruginosa at 100 ug/ml after 24 hr by disk diffusion method
Pseudomonas aeruginosa [6] = assay: Antibacterial activity against Pseudomonas aeruginosa at 200 ug/ml after 24 hr by disk diffusion method
Pseudomonas aeruginosa [7] = assay: Antibacterial activity against Pseudomonas aeruginosa at 50 ug/ml after 24 hr by disk diffusion method
Escherichia coli [8] = assay: Antibacterial activity against Escherichia coli at 200 ug/ml after 24 hr by disk diffusion method
Escherichia coli [9] = assay: Antibacterial activity against Escherichia coli at 50 ug/ml after 24 hr by disk diffusion method
Escherichia coli [10] = assay: Antibacterial activity against Escherichia coli at 100 ug/ml after 24 hr by disk diffusion method
Candida albicans [11] = assay: Antifungal activity against Candida albicans at 200 ug/ml after 48 hr by disk diffusion method
Aspergillus niger [12] = assay: Antifungal activity against Aspergillus niger at 50 ug/ml after 48 hr by disk diffusion method
Candida albicans [13] = assay: Antifungal activity against Candida albicans at 100 ug/ml after 48 hr by disk diffusion method
Candida albicans [14] = assay: Antifungal activity against Candida albicans at 50 ug/ml after 48 hr by disk diffusion method
Staphylococcus aureus [15] = assay: Antibacterial activity against Staphylococcus aureus at 200 ug/ml after 24 hr by disk diffusion method
Aspergillus niger [16] = assay: Antifungal activity against Aspergillus niger at 200 ug/ml after 48 hr by disk diffusion method
Aspergillus niger [17] = assay: Antifungal activity against Aspergillus niger at 100 ug/ml after 48 hr by disk diffusion method
Bacillus subtilis [18] = assay: Antibacterial activity against Bacillus subtilis at 100 ug/ml after 24 hr by disk diffusion method

O=C1N(c2ccccc2)C(=O)C(c2ccccc2)(c2ccccc2)N1CNc1nccs1
zone of inhibition at 100 µg/mL (Staphylococcus aureus [1]): 10 mm | zone of inhibition at 50 µg/mL (Staphylococcus aureus [2]): 4 mm | zone of inhibition at 200 µg/mL (Bacillus subtilis [3]): 13 mm | zone of inhibition at 50 µg/mL (Bacillus subtilis [4]): 5 mm | zone of inhibition at 100 µg/mL (Pseudomonas aeruginosa [5]): 12 mm | zone of inhibition at 200 µg/mL (Pseudomonas aeruginosa [6]): 18 mm | zone of inhibition at 50 µg/mL (Pseudomonas aeruginosa [7]): 4 mm | zone of inhibition at 200 µg/mL (Escherichia coli [8]): 18 mm | zone of inhibition at 50 µg/mL (Escherichia coli [9]): 5 mm | zone of inhibition at 100 µg/mL (Escherichia coli [10]): 10 mm | zone of inhibition at 200 µg/mL (Candida albicans [11]): 13 mm | zone of inhibition at 50 µg/mL (Aspergillus niger [12]): 11 mm | zone of inhibition at 100 µg/mL (Candida albicans [13]): 12 mm | zone of inhibition at 50 µg/mL (Candida albicans [14]): 11 mm | zone of inhibition at 200 µg/mL (Staphylococcus aureus [15]): 18 mm | zone of inhibition at 200 µg/mL (Aspergillus niger [16]): 11 mm | zone of inhibition at 100 µg/mL (Aspergillus niger [17]): 11 mm

CCN(CC)CN1C(=O)N(c2ccccc2)C(=O)C1(c1ccccc1)c1ccccc1
zone of inhibition at 100 µg/mL (Staphylococcus aureus [1]): 10 mm | zone of inhibition at 50 µg/mL (Staphylococcus aureus [2]): 5 mm | zone of inhibition at 100 µg/mL (Bacillus subtilis [18]): 9 mm | zone of inhibition at 200 µg/mL (Bacillus subtilis [3]): 13 mm | zone of inhibition at 50 µg/mL (Bacillus subtilis [4]): 3 mm | zone of inhibition at 100 µg/mL (Pseudomonas aeruginosa [5]): 9 mm | zone of inhibition at 200 µg/mL (Pseudomonas aeruginosa [6]): 14 mm | zone of inhibition at 50 µg/mL (Pseudomonas aeruginosa [7]): 5 mm | zone of inhibition at 200 µg/mL (Escherichia coli [8]): 18 mm | zone of inhibition at 50 µg/mL (Escherichia coli [9]): 3 mm | zone of inhibition at 100 µg/mL (Escherichia coli [10]): 13 mm | zone of inhibition at 200 µg/mL (Candida albicans [11]): 11 mm | zone of inhibition at 50 µg/mL (Aspergillus niger [12]): 8 mm | zone of inhibition at 100 µg/mL (Candida albicans [13]): 10 mm | zone of inhibition at 50 µg/mL (Candida albicans [14]): 9 mm | zone of inhibition at 200 µg/mL (Staphylococcus aureus [15]): 14 mm | zone of inhibition at 200 µg/mL (Aspergillus niger [16]): 12 mm | zone of inhibition at 100 µg/mL (Aspergillus niger [17]): 10 mm

CN(C)CN1C(=O)N(c2ccccc2)C(=O)C1(c1ccccc1)c1ccccc1
zone of inhibition at 100 µg/mL (Staphylococcus aureus [1]): 9 mm | zone of inhibition at 50 µg/mL (Staphylococcus aureus [2]): 4 mm | zone of inhibition at 100 µg/mL (Bacillus subtilis [18]): 10 mm | zone of inhibition at 200 µg/mL (Bacillus subtilis [3]): 18 mm | zone of inhibition at 50 µg/mL (Bacillus subtilis [4]): 5 mm | zone of inhibition at 100 µg/mL (Pseudomonas aeruginosa [5]): 10 mm | zone of inhibition at 200 µg/mL (Pseudomonas aeruginosa [6]): 14 mm | zone of inhibition at 50 µg/mL (Pseudomonas aeruginosa [7]): 6 mm | zone of inhibition at 200 µg/mL (Escherichia coli [8]): 18 mm | zone of inhibition at 50 µg/mL (Escherichia coli [9]): 5 mm | zone of inhibition at 100 µg/mL (Escherichia coli [10]): 13 mm | zone of inhibition at 200 µg/mL (Candida albicans [11]): 19 mm | zone of inhibition at 50 µg/mL (Aspergillus niger [12]): 16 mm | zone of inhibition at 100 µg/mL (Candida albicans [13]): 18 mm | zone of inhibition at 50 µg/mL (Candida albicans [14]): 16 mm | zone of inhibition at 200 µg/mL (Staphylococcus aureus [15]): 12 mm | zone of inhibition at 200 µg/mL (Aspergillus niger [16]): 18 mm | zone of inhibition at 100 µg/mL (Aspergillus niger [17]): 18 mm

CN(C)CN1C(=O)NC(c2ccccc2)(c2ccccc2)C1=O
zone of inhibition at 100 µg/mL (Staphylococcus aureus [1]): 9 mm | zone of inhibition at 50 µg/mL (Staphylococcus aureus [2]): 4 mm | zone of inhibition at 100 µg/mL (Bacillus subtilis [18]): 10 mm | zone of inhibition at 200 µg/mL (Bacillus subtilis [3]): 22 mm | zone of inhibition at 50 µg/mL (Bacillus subtilis [4]): 5 mm | zone of inhibition at 100 µg/mL (Pseudomonas aeruginosa [5]): 10 mm | zone of inhibition at 200 µg/mL (Pseudomonas aeruginosa [6]): 17 mm | zone of inhibition at 50 µg/mL (Pseudomonas aeruginosa [7]): 6 mm | zone of inhibition at 200 µg/mL (Escherichia coli [8]): 22 mm | zone of inhibition at 50 µg/mL (Escherichia coli [9]): 5 mm | zone of inhibition at 100 µg/mL (Escherichia coli [10]): 13 mm | zone of inhibition at 200 µg/mL (Candida albicans [11]): 19 mm | zone of inhibition at 50 µg/mL (Aspergillus niger [12]): 16 mm | zone of inhibition at 100 µg/mL (Candida albicans [13]): 18 mm | zone of inhibition at 50 µg/mL (Candida albicans [14]): 16 mm | zone of inhibition at 200 µg/mL (Staphylococcus aureus [15]): 12 mm | zone of inhibition at 200 µg/mL (Aspergillus niger [16]): 18 mm | zone of inhibition at 100 µg/mL (Aspergillus niger [17]): 18 mm

O=C1N(c2ccccc2)C(=O)C(c2ccccc2)(c2ccccc2)N1CN1CCOCC1
zone of inhibition at 100 µg/mL (Staphylococcus aureus [1]): 6 mm | zone of inhibition at 50 µg/mL (Staphylococcus aureus [2]): 5 mm | zone of inhibition at 100 µg/mL (Bacillus subtilis [18]): 9 mm | zone of inhibition at 200 µg/mL (Bacillus subtilis [3]): 11 mm | zone of inhibition at 50 µg/mL (Bacillus subtilis [4]): 4 mm | zone of inhibition at 100 µg/mL (Pseudomonas aeruginosa [5]): 6 mm | zone of inhibition at 200 µg/mL (Pseudomonas aeruginosa [6]): 11 mm | zone of inhibition at 50 µg/mL (Pseudomonas aeruginosa [7]): 4 mm | zone of inhibition at 200 µg/mL (Escherichia coli [8]): 15 mm | zone of inhibition at 50 µg/mL (Escherichia coli [9]): 4 mm | zone of inhibition at 100 µg/mL (Escherichia coli [10]): 8 mm | zone of inhibition at 200 µg/mL (Candida albicans [11]): 15 mm | zone of inhibition at 50 µg/mL (Aspergillus niger [12]): 10 mm | zone of inhibition at 100 µg/mL (Candida albicans [13]): 12 mm | zone of inhibition at 50 µg/mL (Candida albicans [14]): 10 mm | zone of inhibition at 200 µg/mL (Staphylococcus aureus [15]): 9 mm | zone of inhibition at 200 µg/mL (Aspergillus niger [16]): 12 mm | zone of inhibition at 100 µg/mL (Aspergillus niger [17]): 11 mm

CC1(C)S[C@@H]2[C@H](NC(=O)[C@H](N)c3ccccc3)C(=O)N2[C@H]1C(=O)O [AMPICILLIN]
zone of inhibition at 100 µg/mL (Staphylococcus aureus [1]): 14 mm | zone of inhibition at 50 µg/mL (Staphylococcus aureus [2]): 9 mm | zone of inhibition at 100 µg/mL (Bacillus subtilis [18]): 16 mm | zone of inhibition at 200 µg/mL (Bacillus subtilis [3]): 26 mm | zone of inhibition at 50 µg/mL (Bacillus subtilis [4]): 10 mm | zone of inhibition at 100 µg/mL (Pseudomonas aeruginosa [5]): 14 mm | zone of inhibition at 200 µg/mL (Pseudomonas aeruginosa [6]): 23 mm | zone of inhibition at 50 µg/mL (Pseudomonas aeruginosa [7]): 9 mm | zone of inhibition at 200 µg/mL (Escherichia coli [8]): 29 mm | zone of inhibition at 50 µg/mL (Escherichia coli [9]): 10 mm | zone of inhibition at 100 µg/mL (Escherichia coli [10]): 18 mm | zone of inhibition at 200 µg/mL (Staphylococcus aureus [15]): 23 mm

COC1=CC(=O)C[C@@H](C)[C@]12Oc1c(Cl)c(OC)cc(OC)c1C2=O [GRISEOFULVIN]
zone of inhibition at 200 µg/mL (Candida albicans [11]): 40 mm | zone of inhibition at 50 µg/mL (Aspergillus niger [12]): 21 mm | zone of inhibition at 100 µg/mL (Candida albicans [13]): 25 mm | zone of inhibition at 50 µg/mL (Candida albicans [14]): 18 mm | zone of inhibition at 200 µg/mL (Aspergillus niger [16]): 40 mm | zone of inhibition at 100 µg/mL (Aspergillus niger [17]): 24 mm
